The subject of the test is CD1 mice administered 1% ethylene glycol. The test can be described thus: Mouse ethylene glycol model of hyperoxaluria, urinary oxalate. The class given is in vivo. The conditions noted are these: mice, once-daily oral gavage, 100 mg/kg. How it is done: Mouse Models of Hyperoxaluria for Determining In Vivo Efficacy of hGOX Inhibitors
Male CD1 mice, 6-8 weeks of age (Charles River Labs, Wilmington, Mass.) were administered 1% ethylene glycol ad libitum their drinking water for 14 days. The mice were housed in individual cages, fed ad libitum and 24-h urine collections were initiated on days 1, 5, 9 and 14 using a 15-rack metabolic cage system equipped with a CCS2000 chiller system (Hatteras Instruments, Cary, N.C.) to maintain the samples at 4° C. during collection. Hydrochloric acid (100 μL of 6N) added to the collection vials to acidify the samples and prevent degradation of oxalate before evaluation.
Urine samples were maintained at 4° C. and urinary oxalate concentrations were determined within 24 hours of sample collection using a Trinity Biotech oxalate assay kit (Catalog #591-D). The assay was an enzymatic method based on the oxidation of oxalate by oxalate oxidase followed by measurement of hydrogen peroxide (H2O2) produced during the peroxidase-catalyzed reaction. Briefly, a 1-mL aliquot of each sample was diluted with an equal volume of assay diluent to bring the pH to between 5.0 and 7.0, then placed into purifier tubes (provided in the kit) and mixed for 5 min. The tubes were centrifuged for 5 min at 2000 rpm (1500×g) and the supernatants collected for the oxalate assay. The procedure was specific for oxalate with no special equipment and was easily adaptable for clinical automated analyzers. Each assay included a standard curve prepared with a standardized oxalate control sample (included in the kit) and internal assay control samples for both a normal (0.2-0.3 mmol/L) and elevated (0.86-1.21 mmol/L) level of oxalate.
To evaluate in vivo efficacy, mice were dosed by once-daily oral gavage of compound I-002 in an appropriate vehicle (e.g., phosphate-buffered saline, pH 7.4) at a dosage of 100 mg/kg. […]
The effect of example I-001 in the ethylene glycol model using CD-1 mice was evaluated by twice-daily, oral gavage dosing at 50 mg/kg for 6 days (days 5-11). […]

`CCOC(=O)c1nn[nH]c1Sc1ccc(Cl)cc1` [Example I-002, Ethyl 5-((4-chlorophenyl)thio)-1H-1,2,3-triazole-4-carboxylate]: the “reduction in urinary oxalate” value is recorded as “statistically significant reduction”.

For the origin of these results see patent publication US11389456B2, “Compounds and methods for treating oxalate-related diseases” (OxaluRx, Inc., priority 2018, dated 2022).
